Measured values from patent publication US20060100226A1, “2-Thiopyrimidinones as therapeutic agents” (priority 2004, published 2006).

What was measured:
murine MEKK2 (mMEKK2) [1] = biological target: T1, murine MEKK2 (mMEKK2) (Mus musculus, UniProt Q61083); experiment: MEKK2 PhosphoELISA (mMEKK2/MKK4); assay type: biochemical; details: substrate MKK4/SKK1 (unactive), ATP final 10 μM, O.D. 450 nm
T1 sequence (Q61083 1-619): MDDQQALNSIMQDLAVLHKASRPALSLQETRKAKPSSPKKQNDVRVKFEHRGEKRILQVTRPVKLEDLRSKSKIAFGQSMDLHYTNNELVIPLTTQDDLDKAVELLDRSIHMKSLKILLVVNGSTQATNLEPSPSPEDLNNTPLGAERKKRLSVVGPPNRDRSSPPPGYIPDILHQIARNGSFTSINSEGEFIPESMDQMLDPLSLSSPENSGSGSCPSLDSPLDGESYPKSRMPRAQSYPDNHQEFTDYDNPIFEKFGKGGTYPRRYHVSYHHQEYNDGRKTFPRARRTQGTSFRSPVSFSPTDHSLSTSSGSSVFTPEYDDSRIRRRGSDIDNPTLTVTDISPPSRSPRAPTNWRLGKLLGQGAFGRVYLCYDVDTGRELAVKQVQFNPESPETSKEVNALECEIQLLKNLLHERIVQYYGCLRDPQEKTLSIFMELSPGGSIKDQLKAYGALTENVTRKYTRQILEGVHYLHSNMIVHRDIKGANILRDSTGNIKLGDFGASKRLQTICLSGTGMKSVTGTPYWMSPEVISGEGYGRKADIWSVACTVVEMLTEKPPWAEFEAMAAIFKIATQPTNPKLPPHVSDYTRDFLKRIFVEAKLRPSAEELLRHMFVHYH
Description: Another useful method for assessing protein kinase inhibition, and specifically MEKK2 inhibition, of compounds of the invention involves the MEKK2 phospho-antibody enzyme-linked immunosorbent assay (PhosphoELISA). This screening panel, which involves relatively few steps, is a useful indicator of potential inhibitors of MEKK2. Reactions to murine MEKK2 are observed as optical density measurements at an absorbance of 450 nm. Inhibitory activities can be expressed in terms of IC50, where IC50 is the molar concentration of compound required to inhibit protein kinase binding by 50%.
A phospho-antibody enzyme-linked immunosorbent assay (PhosphoELISA) was used to screen potential inhibitors of MEKK2. The assay was performed as follows: Compounds to be tested were weighed and solubilized in DMSO (Sigma) to a stock concentration of 10 mM. Serial dilutions starting from 1 mM were prepared with additional DMSO. These dilutions were further diluted to 250 μM in kinase reaction buffer [20 mM Hepes pH 7.5, 5 mM MgCl2, 1 mM DTT (Dithiothreitol-Sigma), 1 mM NaVO4 (sodium vanadate- Sigma). A 25 μl aliquot of this solution was transferred to a glutathione coated 96-well microplate (Pierce). A stock aliquot containing 50-125 ng of murine MEKK2 (mMEKK2) was added to each well and incubated on the microplate for 10 minutes at room temperature. A 25 μl solution of MKK4/SKK1 (unactive) was diluted 1:200 in kinase assay buffer and added to the reaction plate followed by 50 μl of 25 μM ATP (adenosine triphosphate) to afford a final well concentration of 10 μM. The reaction was allowed to proceed for 60 minutes at room temperature before washing 3 times with wash buffer [100 mM phosphate pH 7.5, 0.05% TWEEN 20 (Sigma)]. A solution of anti-phospho MKK4/SEK1 antibody (Calbiochem) and biotin anti rabbit IgG (Jackson Immunoresearch) was diluted 1:2500 in kinase reaction buffer and added to the appropriate wells. The reaction was incubated for 60 minutes at room temperature. The microplate was washed 3 times with wash buffer and 100 ul of streptavidin horseradish peroxidase (HRP-Pierce) was added and incubated for 30 minutes at room temperature. The microplate was washed 3 times with wash buffer and 100 μl of TMB (3,3′,5,5′-tetramethylbenzidine-Sigma) was added. The assay was allowed to develop for 15-20 minutes then the reaction was stopped with the addition of 100 μl of 0.2 N sulfuric acid. The optical density (O.D.) of the plate was read on the Victor™ plate reader using the absorbance at 450 nm.

murine MEKK2 (mMEKK2) [2] = biological target: T1, murine MEKK2 (mMEKK2); experiment: TR-FRET kinase assay (mMEKK2/MBP); assay type: biochemical; details: substrate biotin MBP, 60 minutes at room temperature
Method in brief: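 mMEKK2 was preincubated 10 min with compound in pH 7.5 Hepes/MgCl2/DTT/vanadate buffer, then biotin-MBP, anti-phospho-MBP antibody and ATP (5 uM solution added) were added and the reaction ran 60 min at room temperature. After EDTA stop, europium anti-mouse IgG and Cy5-streptavidin were added and TR-FRET was read at 615/665 nm.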

SMILES | IC50 (murine MEKK2 (mMEKK2) [1]) | IC50 (murine MEKK2 (mMEKK2) [2])
COc1cccc(-c2nc(SCc3cccc(NCc4ccc(Cl)c(Cl)c4)c3)[nH]c(=O)c2C#N)c1 [Example 1a, 2-[3-(3,4-Dichloro-benzylamino)-benzylsulfanyl]-4-(3-methoxy-phenyl)-6-oxo-1,6-dihydro-pyrimidine-5-carbonitrile] | < 1 µM | < 1 µM
COc1ccc(-c2nc(SCc3cccc(NCc4ccc(Cl)c(Cl)c4)c3)[nH]c(=O)c2C#N)cc1OC [Example 1b, 2-[3-(3,4-Dichloro-benzylamino)-benzylsulfanyl]-4-(3,4-dimethoxy-phenyl)-6-oxo-1,6-dihydro-pyrimidine-5-carbonitrile] | < 1 µM | < 5 µM
COc1ccc(-c2nc(SCc3cccc(NCc4ccc(Cl)c(Cl)c4)c3)[nH]c(=O)c2C#N)cc1-c1cccs1 [Example 1c] | < 1 µM | < 5 µM
COc1cccc(-c2nc(SCc3cccc(NCc4cccc(Oc5ccc(Cl)cc5)c4)c3)[nH]c(=O)c2C#N)c1 [Example 1cc] | < 1 µM | < 1 µM
COc1cccc(-c2nc(SCc3cccc(NCc4ccccc4)c3)[nH]c(=O)c2C#N)c1 [Example 1d] | < 5 µM | < 5 µM
COc1cccc(-c2nc(SCc3cccc(NCc4ccc5cccc(O)c5n4)c3)[nH]c(=O)c2C#N)c1 [Example 1v] | < 1 µM | < 1 µM

Continued, values first:

IC50 (murine MEKK2 (mMEKK2) [1]) | IC50 (murine MEKK2 (mMEKK2) [2]) | SMILES
< 1 µM | < 5 µM | N#Cc1c(-c2ccccc2-c2cc3ccccc3s2)nc(SCc2cccc(NC(=O)c3ccc(Cl)c(Cl)c3)c2)[nH]c1=O [Example 2bb, N-{3-[4-(2-Benzo[b]thiophen-2-yl-phenyl)-5-cyano-6-oxo-1,6-dihydro-pyrimidin-2-ylsulfanylmethyl]-phenyl}-3,4-dichloro-benzamide]
< 5 µM | < 5 µM | N#Cc1c(-c2ccccc2OC(F)(F)F)nc(SCc2cccc(NC(=O)c3ccc(Cl)c(Cl)c3)c2)[nH]c1=O [Example 2dd, 3,4-Dichloro-N-{3-[5-cyano-6-oxo-4-(2-trifluoromethoxy-phenyl)-1,6-dihydro-pyrimidin-2-ylsulfanylmethyl]-phenyl}-benzamide]
< 1 µM | < 10 µM | N#Cc1c(-c2ccccc2C(F)(F)F)nc(SCc2cccc(NC(=O)c3ccc(Cl)c(Cl)c3)c2)[nH]c1=O [Example 2ee, 3,4-Dichloro-N-{3-[5-cyano-6-oxo-4-(2-trifluoromethyl-phenyl)-1,6-dihydro-pyrimidin-2-ylsulfanylmethyl]-phenyl}-benzamide]
< 5 µM | < 5 µM | N#Cc1c(-c2ccc(C(F)(F)F)cc2)nc(SCc2cccc(NC(=O)c3ccc(Cl)c(Cl)c3)c2)[nH]c1=O [Example 2ff, 3,4-Dichloro-N-{3-[5-cyano-6-oxo-4-(4-trifluoromethyl-phenyl)-1,6-dihydro-pyrimidin-2-ylsulfanylmethyl]-phenyl}-benzamide]
< 5 µM | > 40 µM | N#Cc1c(-c2cccc(C(F)(F)F)c2)nc(SCc2cccc(NC(=O)c3ccc(Cl)c(Cl)c3)c2)[nH]c1=O [Example 2gg, 3,4-Dichloro-N-{3-[5-cyano-6-oxo-4-(3-trifluoromethyl-phenyl)-1,6-dihydro-pyrimidin-2-ylsulfanylmethyl]-phenyl}-benzamide]
< 5 µM | < 5 µM | COc1cccc(-c2nc(SCc3cccc(NC(=O)c4ccc(Cl)c(Cl)c4)c3)[nH]c(=O)c2C#N)c1 [Example 2h]
< 20 µM | < 40 µM | N#Cc1c(-c2ccc(OC(F)(F)F)cc2)nc(SCc2cccc(NC(=O)c3ccc(Cl)c(Cl)c3)c2)[nH]c1=O [Example 2hh, 3,4-Dichloro-N-{3-[5-cyano-6-oxo-4-(4-trifluoromethoxy-phenyl)-1,6-dihydro-pyrimidin-2-ylsulfanylmethyl]-phenyl}-benzamide]
< 10 µM | < 10 µM | COc1cccc(-c2nc(SCc3cccc(NC(=O)c4c(-c5ccccc5)noc4C)c3)[nH]c(=O)c2C#N)c1 [Example 2i]
< 1 µM | < 5 µM | N#Cc1c(-c2cccc([N+](=O)[O-])c2)nc(SCc2cccc(NC(=O)c3ccc(Cl)c(Cl)c3)c2)[nH]c1=O [Example 2ii, 3,4-Dichloro-N-{3-[5-cyano-4-(3-nitro-phenyl)-6-oxo-1,6-dihydro-pyrimidin-2-ylsulfanylmethyl]-phenyl}-benzamide]
< 1 µM | < 5 µM | COc1ccc(-c2nc(SCc3cccc(NC(=O)c4ccc(Cl)c(Cl)c4)c3)[nH]c(=O)c2C#N)cc1-c1cccs1 [Example 2y, 3,4-Dichloro-N-{3-[5-cyano-4-(4-methoxy-3-thiophen-2-yl-phenyl)-6-oxo-1,6-dihydro-pyrimidin-2-ylsulfanylmethyl]-phenyl}-benzamide]
< 1 µM | < 1 µM | N#Cc1c(-c2cccc(-c3cc4ccccc4s3)c2)nc(SCc2cccc(NC(=O)c3ccc(Cl)c(Cl)c3)c2)[nH]c1=O [Example 2z, N-{3-[4-(3-Benzo[b]thiophen-2-yl-phenyl)-5-cyano-6-oxo-1,6-dihydro-pyrimidin-2-ylsulfanylmethyl]-phenyl}-3,4-dichloro-benzamide]
< 10 µM | < 10 µM | N#Cc1c(-c2cccc(N)c2)nc(SCc2cccc(NC(=O)c3ccc(Cl)c(Cl)c3)c2)[nH]c1=O [Example 4n]
> 40 µM |  | CCN(CC)CCOc1ccc(-c2nc(SCc3cccc(NC(=O)c4ccc(Cl)c(Cl)c4)c3)[nH]c(=O)c2C#N)cc1 [Example 4z]
